What all share (assay type): cell-based
The target of one experiment is T1, Bcl-xL (Homo sapiens, UniProt Q07817).
T1 construct: Measured levels of Bcl-xL protein of HCT116 cells treated with the tested compounds; host or cells: HCT116
The experiment can be described thus: HCT116 Bcl-xL degradation, capillary-based immunoassay (WES). The note with it: HCT116, 24 h, 9-point serial dilution. An outline of the steps: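 HCT116 cells treated 24 h with compound at 10/100 nM and/or 9-point dilution (quadruplicates), then lysed. Bcl-xL measured by capillary WES immunoassay, normalized to cofilin and expressed as % of untreated cells. DC50 from four-parameter curve fit.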

In the next experiment the test system is MOLT-4 cells. Put plainly: MOLT-4 cell viability, CTG assay. The note with it: Homo sapiens, MOLT-4, 48 h. An outline of the steps: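 Cells grown in RPMI 1640 with 10% FBS at 37° C, 5% CO2, then exposed to compounds for 48 h (11-point 5-fold dilution, triplicates). ATP measured by CellTiter-Glo luminescence; IC50 from four-parameter fit versus control, mean of ≥2 independent experiments.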

A further experiment deals with T2, HiBiT-tagged BCL-xL (Homo sapiens, UniProt Q07817).
T2 construct: expressed in transfected cells; host or cells: NCI-H1650 (ATCC No. CRL-5883), engineered HiBiT cell line
T2 sequence (Q07817 whole entry): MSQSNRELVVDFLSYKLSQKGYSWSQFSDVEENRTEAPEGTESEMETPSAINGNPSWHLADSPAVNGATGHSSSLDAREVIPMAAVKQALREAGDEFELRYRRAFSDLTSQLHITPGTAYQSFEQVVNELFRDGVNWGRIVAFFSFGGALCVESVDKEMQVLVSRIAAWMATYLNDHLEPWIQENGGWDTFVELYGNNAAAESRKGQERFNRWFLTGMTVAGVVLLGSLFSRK
Put plainly: NCI-H1650 BCL-xL protein levels, Nano-Glo HiBiT Lytic Detection. To be noted: NCI-H1650 expressing HiBiT-tagged BCL-xL, overnight incubation, read-out: Bcl-xl HIBIT NCIH1650 DC50. An outline of the steps:
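NCI-H1650 cells expressing HiBiT-tagged BCL-xL (5000/well) were treated overnight at 37° C with 10 concentrations, final 0.508 nM-10 μM, in triplicate. Remaining BCL-xL measured by Nano-Glo HiBiT lytic luminescence, normalized to untreated cells; 50% values by four-parameter logistic fit.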
Background: HiBiT is a short tag that completes a luciferase, so light tracks the accessible tagged protein.

Experiment [1] deals with EBC-1 lung cancer cell line. The experiment can be described thus: EBC-1 cell proliferation, CellTiter-Glo assay. The note with it: Homo sapiens, 120 h; Ebc-1 cell viability, CTG assay, 5 days of treatment; read-out: CTG 5 day Ebc1 GI50. An outline of the steps: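 EBC-1 cells seeded at 1000 per well overnight, then exposed to 10-point dilutions (0.508 nM–10 μM final) for 5 days at 37 °C, in triplicate. ATP luminescence by CellTiter-Glo, normalised to untreated wells; GI50 from four-parameter logistic fit, runs valid only with at least one doubling.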
On the technique in general: In ATP-based viability assays light output follows the ATP content of the culture.

The structures appear in SMILES notation.

T1 sequence (Q07817 whole entry): as above

Regarding `Cc1ncsc1-c1ccc([C@H](C)NC(=O)[C@@H]2C[C@@H](O)CN2C(=O)[C@@H](NC(=O)C2CCN(C(=O)CCCCCCCCCCN(C)CCOC34CC5(C)CC(C)(CC(Cn6ncc(-c7ccc(N8CCCc9c8nnc(Nc8nc%10ccccc%10s8)c9C)nc7C(=O)O)c6C)(C5)C3)C4)CC2)C(C)(C)C)cc1` [Example 82, 6-[3-(1,3-benzothiazol-2-ylamino)-4-methyl-6,7-dihydro-5H-pyrido[2,3-c]pyridazin-8-yl]-3-[1-[[3-[2-[[11-[4-[[(1S)-1-[(2S,4R)-4-hydroxy-2-[[(1S)-1-[4-(4-methylthiazol-5-yl)phenyl]ethyl]carbamoyl]pyrrolidine-1-carbonyl]-2,2-dimethyl-propyl]carbamoyl]-1-piperidyl]-11-oxo-undecyl]-methyl-amino]ethoxy]-5,7-dimethyl-1-adamantyl]methyl]-5-methyl-pyrazol-4-yl]pyridine-2-carboxylic acid], the DC50 is over 316 nM on Bcl-xL and over 1670 nM at HiBiT-tagged BCL-xL. Inhibition in the experiment with MOLT-4 cells was half-maximal at 10 nM (IC50). Moreover, the GI50 in experiment [1] was 157 nM.

For `Cc1cc(N(CCCCN(C)C(=O)CCCCCCCCCCCCC(=O)N[C@H](C(=O)N2C[C@H](O)C[C@H]2C(=O)N[C@@H](C)c2ccc(-c3scnc3C)cc2)C(C)(C)C)c2ccc(-c3cnn(CC45CC6(C)CC(C)(C4)CC(OCCN(C)C)(C6)C5)c3C)c(C(=O)O)n2)nnc1Nc1nc2ccccc2s1` [Example 116, 6-[[6-(1,3-benzothiazol-2-ylamino)-5-methyl-pyridazin-3-yl]-[4-[[14-[[(1S)-1-[(2S,4R)-4-hydroxy-2-[[(1S)-1-[4-(4-methylthiazol-5-yl)phenyl]ethyl]carbamoyl]pyrrolidine-1-carbonyl]-2,2-dimethyl-propyl]amino]-14-oxo-tetradecanoyl]-methyl-amino]butyl]amino]-3-[1-[[3-[2-(dimethylamino)ethoxy]-5,7-dimethyl-1-adamantyl]methyl]-5-methyl-pyrazol-4-yl]pyridine-2-carboxylic acid], the DC50 was determined as 3.6 nM on Bcl-xL and 1 nM at HiBiT-tagged BCL-xL. Further, the concentration for half-maximal inhibition (IC50) in the experiment with MOLT-4 cells came out at 16.1 nM. The GI50 in experiment [1] amounted to 45 nM.

In the experiment with MOLT-4 cells, `Cc1ncsc1-c1ccc([C@H](C)NC(=O)[C@@H]2C[C@@H](O)CN2C(=O)[C@@H](NC(=O)C2CCN(C(=O)CCCCCCCCCCCN(C)CCOC34CC5(C)CC(C)(CC(Cn6ncc(-c7ccc(N8CCCc9c8nnc(Nc8nc%10ccccc%10s8)c9C)nc7C(=O)O)c6C)(C5)C3)C4)CC2)C(C)(C)C)cc1` [Example 86, 6-[3-(1,3-benzothiazol-2-ylamino)-4-methyl-6,7-dihydro-5H-pyrido[2,3-c]pyridazin-8-yl]-3-[1-[[3-[2-[[12-[4-[[(1S)-1-[(2S,4R)-4-hydroxy-2-[[(1S)-1-[4-(4-methylthiazol-5-yl)phenyl]ethyl]carbamoyl]pyrrolidine-1-carbonyl]-2,2-dimethyl-propyl]carbamoyl]-1-piperidyl]-12-oxo-dodecyl]-methyl-amino]ethoxy]-5,7-dimethyl-1-adamantyl]methyl]-5-methyl-pyrazol-4-yl]pyridine-2-carboxylic acid] gave a half-maximal inhibitory concentration (IC50) of 13.7 nM. Besides, the DC50 at HiBiT-tagged BCL-xL is over 1670 nM. The 50% growth inhibitory concentration (GI50) in experiment [1] is 18 nM.

Regarding `Cc1cc(N(CCCCN(C)C(=O)CCCCCCCCCCC(=O)N[C@H](C(=O)N2C[C@H](O)C[C@H]2C(=O)N[C@@H](C)c2ccc(-c3scnc3C)cc2)C(C)(C)C)c2ccc(-c3cnn(CC45CC6(C)CC(C)(C4)CC(OCCN(C)C)(C6)C5)c3C)c(C(=O)N(C)C)n2)nnc1Nc1nc2ccccc2s1` [Example 128, N′-[4-[[6-(1,3-benzothiazol-2-ylamino)-5-methyl-pyridazin-3-yl]-[5-[1-[[3-[2-(dimethylamino)ethoxy]-5,7-dimethyl-1-adamantyl]methyl]-5-methyl-pyrazol-4-yl]-6-(dimethylcarbamoyl)-2-pyridyl]amino]butyl]-N-[(1S)-1-[(2S,4R)-4-hydroxy-2-[[(1S)-1-[4-(4-methylthiazol-5-yl)phenyl]ethyl]carbamoyl]pyrrolidine-1-carbonyl]-2,2-dimethyl-propyl]-N′-methyl-dodecanediamide], half-maximal inhibition with MOLT-4 cells (IC50) required 67 nM. Also, the DC50 on HiBiT-tagged BCL-xL is 18 nM. The GI50 in experiment [1] is 869 nM.

On to `Cc1ncsc1-c1ccc([C@H](C)NC(=O)[C@@H]2C[C@@H](O)CN2C(=O)[C@@H](NC(=O)CC2CC3(C2)CN(C(=O)c2nc(N4CCCc5c4nnc(Nc4nc6ccccc6s4)c5C)ccc2-c2cnn(CC45CC6(C)CC(C)(C4)CC(OCCN4CCCC4)(C6)C5)c2C)C3)C(C)(C)C)cc1` [Example 170, (2S,4R)-1-((S)-2-(2-(2-(6-(3-(benzo[d]thiazol-2-ylamino)-4-methyl-6,7-dihydropyrido[2,3-c]pyridazin-8(5H)-yl)-3-(1-(((1r,3R,5S,7s)-3,5-dimethyl-7-(2-(pyrrolidin-1-yl)ethoxy)adamantan-1-yl)methyl)-5-methyl-1H-pyrazol-4-yl)picolinoyl)-2-azaspiro [3.3]heptan-6-yl)acetamido)-3,3-dimethylbutanoyl)-4-hydroxy-N—((S)-1-(4-(4-methylthiazol-5-yl)phenyl)ethyl)pyrrolidine-2-carboxamide], for which the DC50 at HiBiT-tagged BCL-xL is 1 nM. Besides, the 50% growth inhibitory concentration (GI50) in experiment [1] was found to be 13 nM.

With `Cc1ncsc1-c1ccc([C@H](C)NC(=O)[C@@H]2C[C@@H](O)CN2C(=O)[C@@H](NC(=O)[C@H]2CCCN(C(=O)c3nc(N4CCCc5c4nnc(Nc4nc6ccccc6s4)c5C)ccc3-c3cnn(CC45CC6(C)CC(C)(C4)CC(OCCN4CCCC4)(C6)C5)c3C)C2)C(C)(C)C)cc1` [Example 168, (S)-1-(6-(3-(benzo[d]thiazol-2-ylamino)-4-methyl-6,7-dihydropyrido[2,3-c]pyridazin-8(5H)-yl)-3-(1-(((1r,3R,5S,7R)-3,5-dimethyl-7-(2-(pyrrolidin-1-yl)ethoxy)adamantan-1-yl)methyl)-5-methyl-1H-pyrazol-4-yl)picolinoyl)-N—((S)-1-((2S,4R)-4-hydroxy-2-(((S)-1-(4-(4-methylthiazol-5-yl)phenyl)ethyl)carbamoyl)pyrrolidin-1-yl)-3,3-dimethyl-1-oxobutan-2-yl)piperidine-3-carboxamide], the DC50 on HiBiT-tagged BCL-xL was over 1670 nM. Further, the GI50 in experiment [1] is 73 nM.

Regarding `Cc1ncsc1-c1ccc([C@H](C)NC(=O)[C@@H]2C[C@@H](O)CN2C(=O)[C@@H](NC(=O)CCCCCCCCCCCCCN(C)CCOC23CC4(C)CC(C)(CC(Cn5ncc(-c6ccc(N7CCCc8c7nnc(Nc7nc9ccccc9s7)c8C)nc6CO)c5C)(C4)C2)C3)C(C)(C)C)cc1` [Example 155, (2S,4R)-1-[(2S)-2-[14-[2-[[3-[[4-[6-[3-(1,3-benzothiazol-2-ylamino)-4-methyl-6,7-dihydro-5H-pyrido[2,3-c]pyridazin-8-yl]-2-(hydroxymethyl)-3-pyridyl]-5-methyl-pyrazol-1-yl]methyl]-5,7-dimethyl-1-adamantyl]oxy]ethyl-methyl-amino]tetradecanoylamino]-3,3-dimethyl-butanoyl]-4-hydroxy-N-[(1S)-1-[4-(4-methylthiazol-5-yl)phenyl]ethyl]pyrrolidine-2-carboxamide], the half-inhibitory concentration (IC50) in the experiment on MOLT-4 cells is 22.1 nM. Further, the DC50 on HiBiT-tagged BCL-xL was over 1670 nM. The 50% growth inhibitory concentration (GI50) in experiment [1] was 431 nM.

By IC50 is commonly meant the concentration needed to halve the response being measured. A word on the GI50: it is the concentration at which growth is held to half of that of the control.

The record behind these values is patent publication US20240376094A2, “SELECTIVE BCL-XL PROTAC COMPOUNDS AND METHODS OF USE” (Les Laboratoires Servier, priority 2021, published 2024).
